Data from patent US11471478B2, “Use of cyclodextrins in diseases and disorders involving phospholipid dysregulation” (priority 2017, dated 2022).
Where “and” joins values, the source holds several entries; their conditions need not be identical. Equal values may be shown once.

What was measured:
BBB = settings: cited from earlier work
[1] = tested on: fibroblasts of lysosomal storage diseases; settings: about 6 mM α-CD, about 8 mM HP-β-CD; cited from earlier work
rats [2] = settings: cited from earlier work
mice/rats = settings: in vivo; cited from earlier work
[3] = 2.1% α-CD added to Western diet; cited from earlier work
keratinocytes = settings: cited from earlier work
[4] = cited from earlier work
whole blood = settings: cited from earlier work
rats [5] = settings: cited from earlier work; remark: listed apart in the source
[6] = cited from earlier work; remark: listed apart in the source
rats [7] = settings: 1 g/kg daily; cited from earlier work
[8] = cited from earlier work; remark: listed apart in the source
[9] = cited from earlier work; remark: listed apart in the source
erythrocytes [10] = settings: cited from earlier work
erythrocytes [11] = settings: cited from earlier work; for IC50: read-out: hemolytic IC50
rats [12] = settings: s.c. single dose 0.100 g/kg; cited from earlier work
SOD1 mice = assay: ALS mice SOD1 G93A, bodyweight; type: in vivo; settings: untreated mice began to lose bodyweight after 21 days
Source text: (§1) ALS mice SOD1 G93A strain (B6SJL-Tg(SOD1*G93A)1Gur/J strain #002726, 10 wk old, and HTT mice (B6CBA-Tg(HDexon1)62Gpb/33; strain #006494 HTT: R6/2, 8 wk old), were obtained from Jackson Laboratories (Bar Harbor, Me.), housed in standard housing with controlled ambient conditions and provided with water and food at libitum.

HTT mice = HTT mice (R6/2), bodyweight; type: in vivo; settings: 8 wk old HTT mice, over 5 wk
Source text: as §1

[13] = tested on: MDA-MB 231 and MCF-7 human breast epithelial cell lines; assay: Wound healing / gap closure migration assay; type: cell-based; settings: for inhibition of migration, 1 mM HP-α-CD versus 2 mM HP-β-CD: MDA-MB-231 and MCF-7
Procedure: Published results have shown that β-CD inhibits human MDA-MB 231 cell migration (Guerra F S, Sampaio LdS, et al. (2016) Translational Medicine Communications 1:3). This inhibition was attributed to the ability of β-CD to “deplete cholesterol”. β-CD, however, depletes also phospholipids. […] Cells were cultured in 24-well culture plates (Cytoselect CBA-120, 0.9 mm wound healing/gap closure migration assay) for 24 h with wound healing insert in place. Cells were then treated for 2 h with HP-β-CD, HP-α-CD, or control. Protocol: Warm up the 24-well plate (CBA-120, Cell BioLabs Inc.) with 0.9 mm CytoSelect Wound Healing Inserts at room temperature for 10 min. Using sterile forceps, orient the desired number of inserts in the plate wells with their “wound field” aligned in the same direction. […] Add 500 μL of cell suspension to each well by carefully inserting the pipette tip through the open end at the top of the insert. For optimal cell dispersion, add 250 μL of cell suspension to either side of the open ends at the top of the insert. Incubate cells in a cell culture incubator for 12-24 hours. Carefully remove the insert from the well to begin the wound healing assay. Use sterile forceps to grab and lift the insert slowly from the plate well. Slowly aspirate and discard the media from the wells. Wash wells with media to remove dead cells and debris. Finally, add media to wells to keep cells hydrated. Repeat wash if wells still have debris or unattached cells. When washing is complete, add media with FBS and/or compounds to continue cell culture and wound healing process. Agents that inhibit or stimulate cell migration can be added directly to the wells. Incubate cells in a cell culture incubator (2 hours) and then wash cells with PBS and then add fresh media without compounds. Incubate 12-24 hours before wash and fixing. Remove the fixation solution and add 400 μL of Cell Stain Solution to each well. Allow the stain to incubate with the cells for 15 minutes at room temperature. Aspirate and discard the solution. Carefully wash each stained well 3× with deionized water. Discard washes and allow cells to dry at room temperature. Cells that migrated into the wounded area or protruded from the border of the wound were visualized and photographed under an inverted microscope. Determine the surface area of the defined wound area: Total Surface Area=0.9 mm×length. Determine the surface area of the migrated cells into the wound area: Migrated Cell Surface Area=length of cell migration (mm)×2× length. Percent Closure (%)=Migrated Cell Surface Area/Total Surface Area×100 (see FIG. 36)

SwN2a cells = settings: cited from earlier work
Npc1−/− mice = settings: mouse, in vivo; cited from earlier work
[14] = tested on: heterogeneous human epithelial colorectal adenocarcinoma (Caco-2) cells; settings: cited from earlier work
[15] = Randomized n-of-1 human PK/PD study: FPLC of morning urine after oral HP-α-CD preparations; settings: in vivo
Procedure: Urine samples (5-10 mL) were pipetted into culture tubes and then frozen for 30 min and samples were then lyophilized for 48-72 h, sealed and stored at −80° C. Phospholipids were extracted from urine samples after reconstitution, with chloroform (CHCl3) and methanol (3:1), and filtered through glass wool. The eluent was washed with 1 M KCl with 0.01% sodium azide. The wash was centrifuged at 3000 g for 30 min and CHCl3 layer transferred to fresh tube and evaporated at 60° C. under nitrogen. Phospholipid extracts and standards were digested in 10 M H2SO4 with 0.16 Ca(NO3)2 and 30% H2O2 and heated for 25 min at 180° C. […] These were vortexed and heated at 35° C. for 30 min. All samples were analyzed in triplicate.
This was coupled to a Beckman Ultra SI column using an isocratic elution profile along a mobile phase of acetonitrile-methanol-phosphoric acid solvent (100:10:1.8) at a flow rate of 1.0 mL/min at RT. The lyophilized samples were resuspended in a hexane-propanol-phenolphthalene mix (3:1:0.1) before injection.
The standard curves (FIG. 43) were generated using DiPalmitoyl-PC in the range of 0.65-32 μM phosphate equivalence. Percentage efficiency of isolation was determined through a comparison of the extraction recovery of total phosphate from normal urine spiked with known amount of synthetic PL with a parallel PL sample digested and assayed without extraction.

[16] = tested on: MDA-MB-231 breast cancer cells; assay: NSG mice injected with human MDA-MB-231 breast cancer cells; type: in vivo
Procedure: NSG mice (NOD.Cg-Prkdcscid Il2rgtm1Wjl/SzJ, strain #005557 (10 wk old) were obtained from Jackson Laboratories (Bar Harbor, Me.), housed in isolated quarters, and fed with autoclaved water and food.
An MDA-MB-231 cell line was obtained (ATCC) and kept frozen in liquid nitrogen. Upon start of culture, cells were thawed (1.5 min in 37° C. water) and transferred to DMEM/F-12 supplemented with 5% FBS, 2 mM L-glutamine, 1 mM sodium pyruvate, and 0.02 mM non-essential amino acids. Cells were grown to several millions in 60 mm dishes at 70-80% confluence. Before injection, cells were briefly rinsed twice in PBS followed by Versene (EDTA, Invitrogen) and placed on ice with excess phosphate-buffered saline and phenol red-free matrigel basement membrane extract to a concentration of about 15 mg/mL matrigel. 100 μL cell mixture (20,000 cells or saline only) were injected into the lactiferous duct of the 3rd or 4th mammary glands under brief isofluorane anesthesia. Groups of 15 mice each were injected IP with 800 mg/kg of HP-α-CD, HP-β-CD per week (over four days, Mon, Tue, Thu, Fri), or saline (control) for six weeks. Size of the primary tumor was measured weekly.
Breast tissue were palpated and measured twice a week with a micro-metric analytical device scaled to 1 mm precision. Mice were weighed weekly on a digital scale (0.1 g precision).
At the end of the study period, mice were anaesthetized with isofluorane with 1× phosphate-buffered saline (PBS) and subsequently with 4% formaldehyde in PBS. Tissue from lung and liver were removed and fixated in formalin for microscopic examination. Metastases were visualized and counted by tissue embedding in paraffin and sectioning with immunohistochemistry and histological stain (H&E) and immunostained with anti-HLA antibody. After blocking for 1 h with BSA (5%, frac V), the anti-HLA was incubated at 4° C. overnight, washed for 1 h in PBS, then incubated with biotinylated anti-mouse IgG for 1 h at room temperature. After washing with PBS, metastases were detected on the slide using Envision (Dako).
After blood collection, whole blood samples were centrifuged (at 10,000 m/s^2 for 15 min and then at 100,000 m/s^2 for 10 min), and plasma was isolated. The samples were stored at −80° C. until analysis.
Prior to analysis (30 min), samples and assay reagents were equilibrated to room temperature. The samples were run at a 1:4 dilution and quantified in duplicate using a multi-plex mouse panel for quantification of IL-1β, IL-18, IL-6, IL-8, IL-17A, and GM-CSF (Bio-Plex Pro assays, Bio-Rad Laboratories) on a Luminex Bio-Plex 200 System (Bio-Rad Laboratories).

[17] = IP 800 mg/kg per week for six weeks
[18] = u-statistics for multivariate data

With `OC[C@H]1O[C@@H]2O[C@H]3[C@H](O)[C@@H](O)[C@@H](O[C@H]4[C@H](O)[C@@H](O)[C@@H](O[C@H]5[C@H](O)[C@@H](O)[C@@H](O[C@H]6[C@H](O)[C@@H](O)[C@@H](O[C@H]7[C@H](O)[C@@H](O)[C@@H](O[C@H]1[C@H](O)[C@H]2O)O[C@@H]7CO)O[C@@H]6CO)O[C@@H]5CO)O[C@@H]4CO)O[C@@H]3CO` [α-CD, alpha-cyclodextrin] as the compound, how does the “Transport across BBB” value (BBB; 2 h, 0.5 mM) read?
The value was 21.5 (0.5 mM) %.

What about the “toxicity on the BBB model” value (BBB) of the same compound?
Its value is “more toxic”.

And the “reduction of lysosomal storage” value [1]?
Its value is “more effective in reducing lysosomal storage than about 8 mM HP-β-CD”.

What about the “LD50 with bolus i.v. injections” value (rats [2]) of the same compound?
Its value is 1000 mg/kg.

And the “LD50 i.v./i.p. in mice/rats” value (mice/rats)?
The value was 500 to 1000 mg/kg.

And the “decrease of plasma phospholipids” value [3]?
The value was 17.5%.

And the “caspase-dependent apoptotic cell death” value (keratinocytes)?
The value was “not”.

And the “Permitted Daily Exposure (PDE) threshold, parenteral” value ([4]; CHMP 2014)?
The value was 0.02 mg/kg/day.

What about the “Permitted Daily Exposure (PDE) threshold, parenteral, revised” value ([4]; Oct. 9, 2017) of the same compound?
Its value is 200 mg/kg/day.

And the “whole blood TD50” value (whole blood)?
The value was 11 mM/L.

What about the Nephrosis/Death (rats [5]; s.c. daily doses 0.100 g/kg) of the same compound?
The Nephrosis/Death was 0.100 no nephrosis.

And the Nephrosis (rats [5]; s.c. daily doses 1.000 g/kg)?
The Nephrosis was 1.000 all had severe nephrosis,.

What about the Death (rats [5]; s.c. up to 7 daily doses of 1.000 g/kg) of the same compound?
Its Death is “one rat died (after 2 days)”.

And the “excreted after i.v. unchanged in urine” value [6]?
The value was roughly 90%.

What about the “i.v. toxicity, 1 g/kg daily” value (rats [7]) of the same compound?
Its value is 1 died @ 2 d.

What about the “found in urine within 6-8 h post oral administration” value [8] of the same compound?
The value was 1.6% and 2.0%.

And the “half-life (t1/2) after i.v. in rats” value ([9]; i.v.)?
The value was 25 min.

What about the “oral absorption in rats” value ([9]; oral) of the same compound?
The value was 2-3%.

What about the reduction of phospholipids (erythrocytes [10]; 10 mM, FIG. 3) of the same compound?
The reduction of phospholipids was 30%.

What about the extraction of cholesterol (erythrocytes [10]) of the same compound?
Its extraction of cholesterol is “negligible even at hemolytic concentrations”.

What about the hemolytic activity (erythrocytes [11]; comparison between cyclodextrins) of the same compound?
Its hemolytic activity is “lower than that of both β-CD and HP-β-CD”.

What about the IC50 (erythrocytes [11]) of the same compound?
Its IC50 is 16 mM.

What about the “Nephrosis (light microscopy)” value (rats [12]) of the same compound?
Its value is 0.100 no changes.

Which results are given for “2-hydroxypropyl-alpha-cyclodextrin [HP-α-CD]”?
bodyweight growth (SOD1 mice): continued to grow for at least two more weeks; BBB breakdown (BBB): 2.5 mM; toxicity on the BBB model (BBB): similarly safe; decline in bodyweight (HTT mice): reduced decline in bodyweight; cell migration / wound closure, concentration dependence ([13]; 2 h treatment, MDA-MB 231 and MCF-7): migration decreased with higher concentration; effect on migration, HP-α-CD versus HP-β-CD ([13]; MDA-MB 231 and MCF-7): stronger effect on migration than HP-β-CD; effect on migration, HP-α-CD versus HP-β-CD ([13]; MDA-MB 231 and MCF-7, listed as HPαCD): twice as effective as HP-β-CD; inhibition of migration, 1 mM HP-α-CD versus 2 mM HP-β-CD [13]: superior to inhibition at 2 mM HP-β-CD; inhibition of migration, 1 mM HP-α-CD versus 2 mM HP-β-CD ([13]; listed as HPαCD): more effective than 2 mM HPβCD; level of membrane cholesterol (SwN2a cells): reduced; levels of Aβ42 (SwN2a cells): dramatically lowered; whole blood TD50 (whole blood): 360 mM/L; cholesterol accumulation (Npc1−/− mice): reduces cholesterol accumulation, albeit not as effectively as HP-β-CD; cytotoxicity [14]: less cytotoxic than α-CD; lysophospholipids in urine (fractions 9 and 10, LPC) [15]: higher than in all other groups; IC50 (erythrocytes [11]): > 100 mM; Tumor volume, median [16, 17]: 356 mm3; effect on tumor volume [16, 17]: more effective than HP-β-CD; plasma cytokines (IL-1β, IL-18, IL-6, IL-8, IL-17A, GM-CSF) versus Vehicle ([16]; conventional 0.05 level): not significant only in IL-6; mice that did not develop lung metastases ([16]; groups of 15 mice): 5 mice; mice who died ([16]; groups of 15 mice): one; comprehensive analysis of all six plasma cytokine markers [16, 18]: more effective than HP-β-CD; lung and liver metastases overall [16, 18]: more effective
